Drawing on patent US20230250096A1, “SUBSTITUTED PHENYL-1H-PYRROLO[2,3-c] PYRIDINE DERIVATIVES” (Janssen Pharmaceutica NV, priority 2021, published 2023), this text covers IC50 for 9 compounds.

Common to all, as to type: cell-based, human
One assay has as its system MOLM14 cells. Nature of the assay: Proliferation assay (spheroid confluence, 8 days), MOLM14. The conditions noted are these: Homo sapiens, MOLM-14, MOLM14; read-out: spheroid assay_MOLM14 IC50. The gist of the method: (§1)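 Absolute IC50 derived from spheroid confluence imaged on day 8, scaled between DMSO (0%) and a cytotoxic low control such as 1 μM staurosporin, fitted with variable slope, bounds fixed at 0 and 100%. Seeding 200 cells/well (300 for KO-52), ultra-low attachment plates, 0.3% DMSO, 37° C.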

A further assay has as its system KO-52 cells. Nature of the assay: Proliferation assay (spheroid confluence, 8 days), KO-52 control cell line. To be noted: read-out: spheroid assay_KO-52 IC50. The procedure, abridged: as §1
In the next assay the test system is MEIS1 mRNA expression. Nature of the assay: MEIS1 mRNA expression assay (Quantigene Singleplex) in MOLM14 cells. To be noted: 48 hours incubation. The gist of the method:
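Read-out: MEIS1 transcript counts, background-subtracted and divided by RPL28, expressed as fold change over DMSO-treated cells, then dose-response modelled for IC50. MOLM14 cells (3,750/well) received graded compound for 48 h before lysis and QuantiGene hybridization at 55 °C.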

For orientation: IC50 means the concentration needed to halve the response being measured.

SMILES strings stand for the structures. Like-named read-outs stand apart in the source and are kept apart here.

On to `Cc1cncc2c1c(CC1CN(CC3CCOCC3)C1)cn2-c1ccc(F)cc1C(=O)N1CC2CC1CO2` (stereo not drawn) [Compound 264], for which the IC50 is 20 nM in the assay with MOLM14 cells; 13500 nM in the assay with KO-52 cells (Homo sapiens); 25 nM in the assay with MEIS1 mRNA expression (Homo sapiens, MOLM-14, 48 h).

`Cc1cncc2c1c(C[C@@H]1CCN(CC3CCC(O)CC3)C1)cn2-c1ccc(F)cc1C(=O)N(C)C(C)C` (single isomer, unassigned) [Compound 205a]: the IC50 with MOLM14 cells is 23 nM; in the assay on KO-52 cells, 7000 nM; with MEIS1 mRNA expression (Homo sapiens, MOLM-14, 48 h), 21 nM.

Regarding `Cc1cncc2c1c(CC1CN(CC3CCOCC3)C1)cn2-c1ccc(F)cc1C(=O)N1CCC[C@H]1C` [Compound 279], the IC50 with MOLM14 cells came out at 12 nM; in the assay with KO-52 cells (Homo sapiens), 5100 nM; in the assay with MEIS1 mRNA expression (Homo sapiens, MOLM-14, 48 h), 17 nM.

Turning to `CC(=O)N1CCC(CN2CC[C@@H](Cc3cn(-c4ccc(F)cc4C(=O)N4CCC[C@H]4C)c4cncc(C)c34)C2)CC1` [Compound 315], the IC50 was found to be 10 nM with MOLM14 cells; 2400 nM with KO-52 cells (Homo sapiens); 37 nM in the assay on MEIS1 mRNA expression (Homo sapiens, MOLM-14, 48 h).

On to `CN=S(=O)(c1cc(F)ccc1-n1cc(CC2CCN(CC3CCN(C(C)=O)CC3)C2)c2c(C)cncc21)C(C)C` (stereo not drawn) [Compound 128], for which the IC50 in the assay on MOLM14 cells was 146 nM; in the assay with KO-52 cells (Homo sapiens), 7900 nM; in the assay with MEIS1 mRNA expression (Homo sapiens, MOLM-14, 48 h) it was 238 nM.

For the compound `CC(=O)NC1CCC(N2CC[C@H](Cc3cn(-c4ccc(F)cc4C(=O)N(C)C(C)C)c4cncc(C)c34)C2)CC1` (stereo partly drawn) [Compound 211], the IC50 is 169 nM in the assay with MOLM14 cells, above 15000 nM with KO-52 cells (Homo sapiens) and 113 nM in the assay on MEIS1 mRNA expression.

For the compound `CC(=O)N1CCC(CN2CC[C@@H](Cc3cn(-c4ccc(F)cc4C(=O)N4CCC5CC54)c4cncc(C)c34)C2)CC1` (stereo partly drawn) [Compound 311], the half-maximal inhibitory concentration (IC50) in the assay on MOLM14 cells is 17 nM; in the assay with KO-52 cells (Homo sapiens) it was 5200 nM; in the assay on MEIS1 mRNA expression (Homo sapiens, MOLM-14, 48 h), 18 nM.

Take `Cc1cncc2c1c(CC1CCN(CC3CCN(C(=O)[C@@H](C)O)CC3)C1)cn2-c1ccc(F)cc1C(=O)N(C)C(C)C` (single isomer, unassigned) [Compound 85]: the IC50 with MOLM14 cells came to 12 nM; in the assay on KO-52 cells (Homo sapiens), 2200 nM; in the assay on MEIS1 mRNA expression (Homo sapiens, MOLM-14, 48 h) it was 22 nM.

For the compound `COCCN(C)CCC[C@H](C(C)C)N1CC[C@H](Cc2cn(-c3ccc(F)cc3C(=O)N(C)C(C)C)c3cncc(Cl)c23)C1` (single isomer, unassigned) [Compound 4a], the IC50 was 132 nM in the assay on MOLM14 cells; 7800 nM in the assay on KO-52 cells (Homo sapiens); 247 nM in the assay on MEIS1 mRNA expression (Homo sapiens, MOLM-14, 48 h).
